Values joined by “and” are separate entries in the source; they are usually repeats but may differ in a detail not shown here. Identical values can stand only once. Marks after values point to notes of the source that are not given here.
How the values were obtained:
[1] = Intrinsic clearance and half-life in human liver mitochondrial fraction; format: in vitro ADME; settings: 0.5 mg/mL human liver mitochondrial fraction; 1 μM test compounds, 5 μM controls; mean of replicates
Excerpt: (§1) Use of Liver Mitochondrial Fraction to Model Human Metabolism of Deuterated DMT

[2] = tested on: human liver mitochondrial fraction; assay: as above; format: in vitro ADME; settings: 0.5 mg/mL human liver mitochondrial fraction, 1 μM test compounds; for Half-life (min) R1: 5 μM Serotonin and Benzylamine controls, replicate 1; for Half-life (min) R3 / Half-life (min) R4 / Half-life (min) Mean: 5 μM controls; for Half-life (min) R3: replicate 3; for Half-life (min) R4: replicate 4; for Half-life (min) Mean: mean of replicates
Excerpt: as §1

[3] = Plasma IAA metabolite levels after oral dosing in rats; settings: for Mean IAA Cmax: rat plasma IAA (semi quantified) after 25 mg/kg PO of the compound; for Mean IAA tmax: rat plasma IAA after 25 mg/kg PO of the compound; for Estimated IAA Concentration / Estimated IAA Concentration, Mean: rat plasma, PO Dose (25 mg/kg); for Estimated IAA Concentration: individual animal; for Estimated IAA Concentration, Mean: mean of animals; for IAA biosynthesis compared to SPL026: rat, PO dosing
[4] = tested on: Human (mixed gender) hepatocytes; assay: In vitro intrinsic clearance of DMT and deuterated blends in human hepatocytes; format: in vitro ADME
Method: Use of Human Hepatocytes to Assess the In Vitro Intrinsic Clearance of Deuterated DMT Analogue Blends Relative to DMT
To use human hepatocytes to assess the in vitro intrinsic clearance of deuterated DMT analogue blends relative to DMT.
Test compounds were mixed with the hepatocyte suspension within a 96-well plate and incubated for up to 60 minutes at 37° C. The suspension was continuously agitated. At 7 time points, small aliquots were withdrawn, and the test compound/blend concentration therein was measured by LC-MS/MS.
Intrinsic clearance and half-life values were calculated for DMT and the 6 deuterated mixtures described above.

[5] = Plasma pharmacokinetics of test compound after oral dosing in rats; settings: for mean Cmax / Determined Concentration of test compound in plasma / Determined Concentration of test compound in plasma, Mean: rat plasma; for mean Cmax: 25 mg/kg single oral gavage; for Determined Concentration of test compound in plasma / Determined Concentration of test compound in plasma, Mean: oral dosing; for Determined Concentration of test compound in plasma: individual animal; for Determined Concentration of test compound in plasma, Mean: mean of 3 animals; for systemic exposure compared to SPL026: rat, oral (PO) dosing
[6] = 10 min, fumarate salt, 25 mg/kg
[7] = 15 min, fumarate salt, 25 mg/kg
[8] = 30 min, fumarate salt, 25 mg/kg
[9] = 45 min, fumarate salt, 25 mg/kg
[10] = 60 min, fumarate salt, 25 mg/kg
[11] = 120 min, fumarate salt, 25 mg/kg
[12] = 180 min, fumarate salt, 25 mg/kg

## NCc1ccccc1 [Benzylamine, reference compound]
[1]
  half-life at 5 μM: 22.8 min
[2]
  Half-life (min) R1: 24.3 min
  Half-life (min) R3: 21.2 min
  Half-life (min) R4: 23.5 min

## O=C(O)/C=C/C(=O)O.[2H]C([2H])(Cc1c[nH]c2ccccc12)N(C)C [SPL028i, (96.6%) α,α,-dideutero-N,N-dimethyltryptamine fumarate salt]
[3]; fumarate salt
  Mean IAA Cmax: 2.933 ng/mL and 2.993 ng/mL
[3]
  Mean IAA tmax: 45 min
  IAA biosynthesis compared to SPL026: significant decrease
[3]; 1 min
  Estimated IAA Concentration: BLQ
  Estimated IAA Concentration, Mean: BLQ
[3]; 5 min, fumarate salt, 25 mg/kg
  Estimated IAA Concentration: 0.523 ng/mL and 0.874 ng/mL and 0.503 ng/mL
[3]; 5 min
  Estimated IAA Concentration, Mean: 0.633 ng/mL
[3]; [6]
  Estimated IAA Concentration: 1.24 ng/mL and 1.84 ng/mL and 1.34 ng/mL
[3]; 10 min
  Estimated IAA Concentration, Mean: 1.473 ng/mL
[3]; [7]
  Estimated IAA Concentration: 2.41 ng/mL and 0.749 ng/mL and 1.97 ng/mL
[3]; 15 min
  Estimated IAA Concentration, Mean: 1.709 ng/mL
[3]; [8]
  Estimated IAA Concentration: 3.53 ng/mL and 2.10 ng/mL and 2.18 ng/mL
[3]; 30 min
  Estimated IAA Concentration, Mean: 2.606 ng/mL
[3]; [9]
  Estimated IAA Concentration: 4.67 ng/mL and 1.95 ng/mL and 2.35 ng/mL
[3]; 45 min
  Estimated IAA Concentration, Mean: 2.993 ng/mL
[3]; [10]
  Estimated IAA Concentration: 2.78 ng/mL and 1.59 ng/mL and 1.50 ng/mL
[3]; 60 min
  Estimated IAA Concentration, Mean: 1.955 ng/mL
[3]; [11]
  Estimated IAA Concentration: 2.94 ng/mL and 1.42 ng/mL and 1.81 ng/mL
[3]; 120 min
  Estimated IAA Concentration, Mean: 2.055 ng/mL
[3]; [12]
  Estimated IAA Concentration: 2.09 ng/mL and 0.898 ng/mL and 1.45 ng/mL
[3]; 180 min
  Estimated IAA Concentration, Mean: 1.480 ng/mL
[3]; Predose
  Estimated IAA Concentration: BLQ
  Estimated IAA Concentration, Mean: BLQ
[2]
  Half-life (min) R1: 86.1 min
  Half-life (min) Mean: 85.0 min
  Half-life (min) R3: 82.6 min
  Half-life (min) R4: 72.1 min
[4]
  half-life compared to undeuterated-DMT: nearly doubling
  intrinsic clearance rate compared to undeuterated-DMT: almost halved
[5]
  mean Cmax: 54.3 ng/mL
  systemic exposure compared to SPL026: increased systemic exposure
[5]; 1 min
  Determined Concentration of test compound in plasma: BLQ (Below the lower limit of quantification 0.310 ng/mL)
  Determined Concentration of test compound in plasma, Mean: BLQ (Below the lower limit of quantification 0.310 ng/mL)
[5]; 5 min, fumarate salt
  Determined Concentration of test compound in plasma: 0.865 ng/mL and 5.85 ng/mL and 0.688 ng/mL
[5]; 5 min
  Determined Concentration of test compound in plasma, Mean: 2.5 ng/mL
[5]; 10 min, fumarate salt
  Determined Concentration of test compound in plasma: 2.42 ng/mL and 49.2 ng/mL and 6.72 ng/mL
[5]; 10 min
  Determined Concentration of test compound in plasma, Mean: 19.4 ng/mL
[5]; 15 min, fumarate salt
  Determined Concentration of test compound in plasma: 7.46 ng/mL and 34.3 ng/mL and 19.0 ng/mL
[5]; 15 min
  Determined Concentration of test compound in plasma, Mean: 20.3 ng/mL
[5]; 30 min, fumarate salt
  Determined Concentration of test compound in plasma: 22.6 ng/mL (2×) and 46.4 ng/mL
[5]; 30 min
  Determined Concentration of test compound in plasma, Mean: 30.5 ng/mL
[5]; 45 min, fumarate salt
  Determined Concentration of test compound in plasma: 22.6 ng/mL and 33.1 ng/mL and 43.7 ng/mL
[5]; 45 min
  Determined Concentration of test compound in plasma, Mean: 33.1 ng/mL
[5]; 60 min, fumarate salt
  Determined Concentration of test compound in plasma: 30.5 ng/mL and 32.1 ng/mL and 53.1 ng/mL
[5]; 60 min
  Determined Concentration of test compound in plasma, Mean: 38.6 ng/mL
[5]; 120 min, fumarate salt
  Determined Concentration of test compound in plasma: 38.0 ng/mL and 18.7 ng/mL and 49.3 ng/mL
[5]; 120 min
  Determined Concentration of test compound in plasma, Mean: 35.3 ng/mL
[5]; Predose
  Determined Concentration of test compound in plasma: BLQ (Below the lower limit of quantification 0.310 ng/mL)
  Determined Concentration of test compound in plasma, Mean: BLQ (Below the lower limit of quantification 0.310 ng/mL)

## [2H]C([2H])([2H])N(CCc1c[nH]c2ccccc12)C([2H])([2H])[2H] [SPL028vii]
[2]
  Half-life (min) Mean: 10.2 min
  Half-life (min) R3: 9.4 min
  Half-life (min) R4: 10.9 min

## O=C(O)/C=C/C(=O)O.[2H]C([2H])([2H])N(C([2H])([2H])[2H])C([2H])([2H])Cc1c[nH]c2ccccc12 [SPL028viii, (96.7%) α,α,-dideutero-N,N-bis-trideutero-dimethyltryptamine fumarate salt]
[3]
  Mean IAA Cmax: 0.827 ng/mL
  Mean IAA tmax: 60 min
  IAA biosynthesis compared to SPL026: significant decrease
[3]; 1 min
  Estimated IAA Concentration: BLQ
  Estimated IAA Concentration, Mean: BLQ
[3]; 5 min, fumarate salt, 25 mg/kg
  Estimated IAA Concentration: BLQ (2×) and 0.223 ng/mL
[3]; 5 min
  Estimated IAA Concentration, Mean: <0.281 ng/mL
[3]; [6]
  Estimated IAA Concentration: BLQ (2×) and 0.430 ng/mL
[3]; 10 min
  Estimated IAA Concentration, Mean: <0.350 ng/mL
[3]; [7]
  Estimated IAA Concentration: BLQ (2×) and 0.846 ng/mL
[3]; 15 min
  Estimated IAA Concentration, Mean: <0.489 ng/mL
[3]; [8]
  Estimated IAA Concentration: BLQ (2×) and 1.04 ng/mL
[3]; 30 min
  Estimated IAA Concentration, Mean: <0.544 ng/mL
[3]; [9]
  Estimated IAA Concentration: 0.347 ng/mL and 0.821 ng/mL and 1.0 ng/mL
[3]; 45 min
  Estimated IAA Concentration, Mean: 0.733 ng/mL
[3]; [10]
  Estimated IAA Concentration: BLQ and 0.772 ng/mL and 0.883 ng/mL
[3]; 60 min
  Estimated IAA Concentration, Mean: 0.827 ng/mL
[3]; [11]
  Estimated IAA Concentration: BLQ and 0.516 ng/mL and 0.747 ng/mL
[3]; 120 min
  Estimated IAA Concentration, Mean: 0.631 ng/mL
[3]; [12]
  Estimated IAA Concentration: BLQ and 0.747 ng/mL and 0.673 ng/mL
[3]; 180 min
  Estimated IAA Concentration, Mean: 0.710 ng/mL
[3]; Predose
  Estimated IAA Concentration: BLQ
  Estimated IAA Concentration, Mean: BLQ
[2]
  Half-life (min) R3: 92.9 min
  Half-life (min) R4: 131.5† min
[5]
  mean Cmax: 40.77 ng/mL
  systemic exposure compared to SPL026: increased systemic exposure
[5]; 1 min, fumarate salt
  Determined Concentration of test compound in plasma: 19.8 ng/mL and BLQ (Below the lower limit of quantification 0.310 ng/mL) (2×)
[5]; 1 min
  Determined Concentration of test compound in plasma, Mean: <6.8 ng/mL
[5]; 5 min, fumarate salt
  Determined Concentration of test compound in plasma: 14.9 ng/mL and 3.11 ng/mL and 0.506 ng/mL
[5]; 5 min
  Determined Concentration of test compound in plasma, Mean: 6.2 ng/mL
[5]; 10 min, fumarate salt
  Determined Concentration of test compound in plasma: 18.0 ng/mL and 13.7 ng/mL and 11.8 ng/mL
[5]; 10 min
  Determined Concentration of test compound in plasma, Mean: 14.5 ng/mL
[5]; 15 min, fumarate salt
  Determined Concentration of test compound in plasma: 20.5 ng/mL and 20.3 ng/mL and 36.2 ng/mL
[5]; 15 min
  Determined Concentration of test compound in plasma, Mean: 25.7 ng/mL
[5]; 30 min, fumarate salt
  Determined Concentration of test compound in plasma: 9.08 ng/mL and 23.0 ng/mL and 35.7 ng/mL
[5]; 30 min
  Determined Concentration of test compound in plasma, Mean: 22.6 ng/mL
[5]; 45 min, fumarate salt
  Determined Concentration of test compound in plasma: 5.90 ng/mL and 21.7 ng/mL and 40.0 ng/mL
[5]; 45 min
  Determined Concentration of test compound in plasma, Mean: 22.5 ng/mL
[5]; 60 min, fumarate salt
  Determined Concentration of test compound in plasma: 4.43 ng/mL and 30.5 ng/mL and 62.0 ng/mL
[5]; 60 min
  Determined Concentration of test compound in plasma, Mean: 32.3 ng/mL
[5]; 120 min, fumarate salt
  Determined Concentration of test compound in plasma: 13.5 ng/mL and 31.6 ng/mL and 63.8 ng/mL
[5]; 120 min
  Determined Concentration of test compound in plasma, Mean: 36.3 ng/mL
[5]; Predose
  Determined Concentration of test compound in plasma: BLQ (Below the lower limit of quantification 0.310 ng/mL)
  Determined Concentration of test compound in plasma, Mean: BLQ (Below the lower limit of quantification 0.310 ng/mL)

## NCCc1c[nH]c2ccc(O)cc12 [Serotonin, reference compound]
[1]
  half-life at 5 μM: 9 min
[2]
  Half-life (min) R1: 9.3 min
  Half-life (min) R3: 9.1 min
  Half-life (min) R4: 8.5 min
